# Results published in publication PMC6926962, “Pentafluorophenyl Platinum(II) Complexes of PTA and Its N-Allyl and N-Benzyl Derivatives: Synthesis, Characterization and Biological Activity” (Materials, 2019).
# Where two headings read alike, the source gives them in different places.
# Assays:
# [1] = system: A549 (human lung carcinoma); parameters: method as in PMID 31237306; conditions: nd = not detectable, read-out: Half maximal inhibitory concentration (IC50); cited from earlier work
# [2] = target: T1, human serum albumin (HSA) (Homo sapiens, UniProt P02768); conditions: under the same conditions; cited from earlier work
# T1 construct: High purity free-HSA (>96%, Sigma-Aldrich, Steinheim, North Rhine-Westphalia, Germany) was used as purchased; purchased Sigma-Aldrich
# [3] = system: NHDF (normal human dermal fibroblasts); parameters: method as in PMID 31237306; conditions: nd = not detectable, read-out: Half maximal inhibitory concentration (IC50); cited from earlier work
# [4] = system: HeLa (human cervix carcinoma); parameters: method as in PMID 31237306; conditions: nd = not detectable, read-out: Half maximal inhibitory concentration (IC50); cited from earlier work
# [5] = system: MCF7 (human breast adenocarcinoma); parameters: method as in PMID 31237306; conditions: nd = not detectable, read-out: Half maximal inhibitory concentration (IC50); cited from earlier work
# [6] = system: MCF7 (human breast adenocarcinoma); test: MTT cell viability assay, MCF7; assay type: cell-based; conditions: MCF7, 72 h incubation, read-out: Half maximal inhibitory concentration (IC50)
# Method: (§1) NHDF (normal human dermal fibroblasts; PromoCell, C-12302), A549 (human lung carcinoma; ATCC, No CCL-185 ^TM), HeLa (human cervix carcinoma; ATCC, No CCL-2 ^TM) and MCF7 (human breast adenocarcinoma; ATCC, No HTB-22 ^TM) were used. NHDF, A549, HeLa and MCF7 cell lines were cultured in DMEM (Lonza, Basel, Switzerland). Media were supplemented with 10% FBS (Biological Industries, Kibbutz Beit-Haemek, Israel), 4 mM L-glutamine (Biological Industries, Kibbutz Beit-Haemek, Israel), 100 U/mL of penicillin and 100 µg/mL of streptomycin (Sigma, Steinheim, North Rhine-Westphalia, Germany).
# (§2) All cell cultures were inserted in a 96-well plate (Eppendorf, Freie und Hansestadt Hamburg, Germany) in a concentration of 10^5 cells per well.
# (§3) Compounds 2a–c and ligands 1a–c were dissolved in distilled water and diluted to afford concentrations of 30, 3, 0.3 and 0.03 μg/mL in DMEM and incubated in standard conditions for 72 h, after which the MTT (Sigma, Steinheim, North Rhine-Westphalia, Germany) assay was carried out. 20 µL of MTT (5 mg/mL) was added to each well, incubation for 4 h at 37 °C was implemented, and then 80 µL of lysis buffer was added. The test consists in the enzymatic reduction of the tetrazolium salt MTT in metabolically active cells. The metabolite, purple-colored formazan is measured colorimetrically, using a multiwell plate reader. The optical density (OD) was measured using a spectrophotometric microplate reader (Multiscan Go, Thermo Fisher, Waltham, MA, USA) at 570 nm with reference wavelength of 630 nm. The viability of the investigated cell cultures was estimated using following formula: viability% = (average OD for test group/average OD for control group) × 100. The untreated cells were used as a control group.
# [7] = system: A549 (human lung carcinoma); test: MTT cell viability assay, A549; assay type: cell-based; conditions: A549, 72 h incubation, read-out: Half maximal inhibitory concentration (IC50)
# Method: as §1, §2, §3
# [8] = system: HeLa (human cervix carcinoma); test: MTT cell viability assay, HeLa; assay type: cell-based; conditions: 72 h incubation, read-out: Half maximal inhibitory concentration (IC50)
# Method: as §1, §2, §3
# [9] = system: NHDF (normal human dermal fibroblasts); test: MTT cell viability assay, NHDF; assay type: cell-based; conditions: 72 h incubation, read-out: Half maximal inhibitory concentration (IC50)
# Method: as §1, §2, §3
# [10] = Octanol-water partition coefficient determination; assay type: physicochemical; conditions: 24 °C, 10^−3 M in water saturated with octanol
# Method: The log(P) values corresponding to the octanol–water partition coefficient was adjusted to the solubility properties of the compounds [84]. Complexes were dissolved in water previously saturated with octanol, to achieve concentrations of 10^−3 M. At 24 °C, 25 mL of octanol saturated with water was introduced into a 100 mL flask equipped and then 25 mL of the aqueous complex solutions was added. The two-phase mixture thus obtained was stirred vigorously for 20 min. After separation of the phases and removal of the respective solvents under vacuum, the attained residues were weighed. Values for log(P) of −0.11, −0.71 and −0.40 for 2a, 2b and 2c, respectively, were obtained.
# [11] = target: T1, human serum albumin (HSA); test: HSA interaction, circular dichroism; assay type: binding; conditions: HSA/complex molar ratio 1/10; free HSA 50.88%
# Method: High purity free-HSA (>96%, Sigma-Aldrich, Steinheim, North Rhine-Westphalia, Germany) was used as purchased. The stock solutions of platinum complexes (200 μM) were freshly prepared in double distilled water prior to their use. The HSA solutions (200 μM) were prepared in PBS (pH 7.40). […] Measurements were done after 24 h incubation at 300, 305 and 310 K. HSA concentration was determined, using A279 (1 mg/mL) as 0.531 [85].
# Circular dichroism spectra were recorded on a Jasco J-715 spectropolarimeter, over the range of 190–250 nm in 0.1 cm cuvettes. The α-helical content of HSA was calculated from the molar ellipticity (θ) at 208–210 nm using Equations (1) and (2): (1) MRE209=ObservedCD (mdeg)/Cp·n·l·10, (2) α−helix (%)=MRE209−4000/33000−4000×100, where MRE is the mean residue ellipticity, Cp is the molar concentration of the protein, n is the number of amino acid residues (583) and l is the path-length (0.1 cm).
# [12] = target: T1, human serum albumin (HSA); test: HSA interaction, fluorescence quenching (Trp-214); assay type: binding; conditions: for KSV (Stern-Volmer constant): HSA 10 μM, pH 7.40; for ΔH^0 / ΔS^0: van't Hoff; for maximum blue shift of HSA fluorescence emission: HSA emission max 335 nm, λex 295 nm
# Method: High purity free-HSA (>96%, Sigma-Aldrich, Steinheim, North Rhine-Westphalia, Germany) was used as purchased. The stock solutions of platinum complexes (200 μM) were freshly prepared in double distilled water prior to their use. The HSA solutions (200 μM) were prepared in PBS (pH 7.40). In the final step, the samples contained (protein):(drug) equal 1:0–1:9 in PBS, where CHSA was 10 μM. Measurements were done after 24 h incubation at 300, 305 and 310 K. HSA concentration was determined, using A279 (1 mg/mL) as 0.531 [85].
# Emission fluorescence spectra were recorded using Hitachi F-2700 spectrofluorimeter (Tokio, Japan) in 1.0 cm quartz cells in the 300–400 nm range. Trp-214 fluorescence of HSA was measured at 295 nm. The intensity at 335 nm (Trp-214) was used to achieve the quenching mechanism and calculate the binding constants and thermodynamic parameters according to literature reports.
# [13] = Solubility in water; assay type: physicochemical; conditions: 25 °C
# T1 sequence (P02768 25-609): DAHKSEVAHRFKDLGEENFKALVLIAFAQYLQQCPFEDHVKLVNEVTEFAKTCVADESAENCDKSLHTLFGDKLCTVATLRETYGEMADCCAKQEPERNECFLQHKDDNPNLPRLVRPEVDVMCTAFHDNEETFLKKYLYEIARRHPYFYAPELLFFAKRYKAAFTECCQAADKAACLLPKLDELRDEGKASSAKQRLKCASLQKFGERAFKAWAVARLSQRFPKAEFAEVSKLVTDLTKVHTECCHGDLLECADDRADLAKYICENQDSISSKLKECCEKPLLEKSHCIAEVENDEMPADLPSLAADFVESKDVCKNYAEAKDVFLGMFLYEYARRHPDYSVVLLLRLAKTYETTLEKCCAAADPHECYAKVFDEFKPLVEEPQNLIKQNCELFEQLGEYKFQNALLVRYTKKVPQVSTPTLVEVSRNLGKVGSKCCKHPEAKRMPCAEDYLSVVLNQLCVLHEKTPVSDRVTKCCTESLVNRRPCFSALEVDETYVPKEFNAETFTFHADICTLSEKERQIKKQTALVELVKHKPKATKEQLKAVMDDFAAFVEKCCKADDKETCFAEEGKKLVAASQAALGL
Compound,IC50 ([6]; Homo sapiens) [µM],IC50 ([7]; Homo sapiens) [µM],IC50 ([8]; Homo sapiens) [µM],IC50 ([9]; Homo sapiens) [µM],IC50 [6] [µM],log(P) octanol-water partition coefficient [10],IC50 [7] [µM],content of α-helix of HSA [11] [%],IC50 [8] [µM],KA (association constant) ([12]; 300 K) [M⁻¹],Kq (quenching rate constant) ([12]; 300 K) [M⁻¹ s⁻¹],n (number of binding sites) ([12]; 300 K),ΔG^0 ([12]; 300 K) [kcal/mol],KSV (Stern-Volmer constant) ([12]; 300 K) [M⁻¹],ΔH^0 ([12]; 300 K) [kcal/mol],ΔS^0 ([12]; 300 K) [J mol^−1·K^−1],KA (association constant) ([12]; 305 K) [M⁻¹],Kq (quenching rate constant) ([12]; 305 K) [M⁻¹ s⁻¹],IC50 [9] [µM],solubility in H2O (S25 °C) [13],other results
"N.N.[Cl][Pt][Cl] [Cisplatin, cisplatin]",,,,,,,,,,,,,,,,,,,,,IC50 [1]: 33.3 ± 4.2 µM; binding constant Ka for cisplatin-HSA complex [2]: 852 M⁻¹; IC50 [3]: 16.6 ± 2.1 µM; IC50 [4]: 16.6 ± 3.1 µM; IC50 [5]: 33.3 ± 4.2 µM
"C=CC[N+]12CN3CN(CP(C3)C1)C2 [Compound 1b, 1-allyl-1-azonia-3,5-diaza-7-phosphaadamantane]",> 263,> 263,65.8 ± 6.6,> 263,,,,,,,,,,,,,,,,,
"c1ccc(C[N+]23CN4CN(CP(C4)C2)C3)cc1 [Compound 1c, 1-benzyl-1-azonia-3,5-diaza-7-phosphaadamantane]",72.4 ± 2.4,> 224,56 ± 16,> 224,,,,,,,,,,,,,,,,,
"C=CC[N+]12CN3CN(C1)C[PH]([Pt]([Cl])([c]1c(F)c(F)c(F)c(F)c1F)[PH]14CN5CN(C[N+](CC=C)(C5)C1)C4)(C3)C2.F[B-](F)(F)F.F[B-](F)(F)F [Compound 2b, trans-(PtCl(C6F5)(APTA)2)(BF4)2]",,,,,> 31,−0.71,7.79 ± 1.7,46.29,29.5 ± 1.3,9880,1.77e+12,1.26,-5.43,8850,4.02,131.4,9900,1.96e+12,26.9 ± 3.5,≈ 4.0 mg mL^−1,n (number of binding sites) ([12]; 305 K): 0.96; ΔG^0 ([12]; 305 K): -5.57 kcal/mol; KSV (Stern-Volmer constant) ([12]; 305 K): 9780 M⁻¹; ΔH^0 ([12]; 305 K): 4.02 kcal/mol; ΔS^0 ([12]; 305 K): 131.4 J mol^−1·K^−1; KA (association constant) ([12]; 310 K): 11000 M⁻¹; Kq (quenching rate constant) ([12]; 310 K): 2.08e+12 M⁻¹ s⁻¹; n (number of binding sites) ([12]; 310 K): 1.24; KSV (Stern-Volmer constant) ([12]; 310 K): 10400 M⁻¹; maximum blue shift of HSA fluorescence emission [12]: ca. 3 nm
"F[B-](F)(F)F.F[B-](F)(F)F.Fc1c(F)c(F)[c]([Pt-3]([Cl])([P+]23CN4CN(C[N+](Cc5ccccc5)(C4)C2)C3)[P+]23CN4CN(C[N+](Cc5ccccc5)(C4)C2)C3)c(F)c1F [Compound 2c, trans-(PtCl(C6F5)(BzPTA)2)(BF4)2]",,,,,> 28.1,−0.40,> 28.1,47.17,8.89 ± 4.1,14500,2.72e+12,1.25,-5.71,13600,1.71,103.5,15200,2.96e+12,11.2 ± 3.1,≈ 3.0 mg mL^−1,n (number of binding sites) ([12]; 305 K): 0.99; ΔG^0 ([12]; 305 K): -5.83 kcal/mol; KSV (Stern-Volmer constant) ([12]; 305 K): 14800 M⁻¹; ΔH^0 ([12]; 305 K): 1.71 kcal/mol; ΔS^0 ([12]; 305 K): 103.5 J mol^−1·K^−1; KA (association constant) ([12]; 310 K): 15900 M⁻¹; Kq (quenching rate constant) ([12]; 310 K): 3.24e+12 M⁻¹ s⁻¹; n (number of binding sites) ([12]; 310 K): 1.59; KSV (Stern-Volmer constant) ([12]; 310 K): 16200 M⁻¹; maximum blue shift of HSA fluorescence emission [12]: ~5 nm
trans-(PtCl(C6F5)(PTA)2) [Compound 2a],,,,,> 42.1,−0.11,15.4 ± 5.3,,> 42.1,,,,,,,,,,26.1 ± 0.68,≈ 0.35 mg mL^−1,
